# Measured values from PubChem BioAssay (NCI).
#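 96-well plates; 48 h exposure; 5 concentrations. Endpoints by linear interpolation between flanking doses. Not reached: highest tested concentration assigned. GI50 marks 50% less growth. The concentration for full growth arrest is given as TGI.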
# What was measured:
# Assay in all cases: growth of human tumour cells (NCI), 48 h
# IGROV1 ovarian = system: IGROV1 ovarian
# RXF 393 renal = system: RXF 393 renal
# COLO 205 colon = system: COLO 205 colon
# OVCAR-5 ovarian = system: OVCAR-5 ovarian
# MOLT-4 leukemia = system: MOLT-4 leukemia
# NCI-H522 lung = system: NCI-H522 lung
# HL-60(TB) leukemia = system: HL-60(TB) leukemia
# UACC-257 melanoma = system: UACC-257 melanoma
# MCF7 breast = system: MCF7 breast
# A498 renal = system: A498 renal
# HCC-2998 colon = system: HCC-2998 colon
# ACHN renal = system: ACHN renal
# A549 NSCLC = system: A549 NSCLC
# UACC-62 melanoma = system: UACC-62 melanoma
# K-562 leukemia = system: K-562 leukemia
# NCI-H226 lung = system: NCI-H226 lung
# SK-OV-3 ovarian = system: SK-OV-3 ovarian
# HCT-15 colon = system: HCT-15 colon
# MDA-MB-468 breast = system: MDA-MB-468 breast
# OVCAR-4 ovarian = system: OVCAR-4 ovarian
# TK-10 renal = system: TK-10 renal
# HCT-116 colon = system: HCT-116 colon
# PC-3 prostate = system: PC-3 prostate
# 786-0 renal = system: 786-0 renal
# MDA-MB-231 breast = system: MDA-MB-231 breast
# SW-620 colon = system: SW-620 colon
# HS 578T breast = system: HS 578T breast
# SK-MEL-5 melanoma = system: SK-MEL-5 melanoma
# LOX IMVI melanoma = system: LOX IMVI melanoma
# SN12C renal = system: SN12C renal
# SF-295 CNS = system: SF-295 CNS
# UO-31 renal = system: UO-31 renal
# SF-268 CNS = system: SF-268 CNS
# DU-145 prostate = system: DU-145 prostate
# M14 melanoma = system: M14 melanoma
# SR leukemia = system: SR leukemia
# OVCAR-3 ovarian = system: OVCAR-3 ovarian
# MDA-MB-435 = system: MDA-MB-435
# NCI-H460 lung = system: NCI-H460 lung
# CAKI-1 renal = system: CAKI-1 renal
# OVCAR-8 ovarian = system: OVCAR-8 ovarian
# CCRF-CEM leukemia = system: CCRF-CEM leukemia
# HT29 colon = system: HT29 colon
# U251 CNS = system: U251 CNS
# NCI-H23 lung = system: NCI-H23 lung
# BT-549 breast = system: BT-549 breast
# SNB-19 CNS = system: SNB-19 CNS
# T-47D breast = system: T-47D breast
# SK-MEL-28 melanoma = system: SK-MEL-28 melanoma
# MALME-3M melanoma = system: MALME-3M melanoma
# RPMI-8226 leukemia = system: RPMI-8226 leukemia
# EKVX NSCLC = system: EKVX NSCLC
# SNB-75 CNS = system: SNB-75 CNS
# SF-539 CNS = system: SF-539 CNS
# HOP-92 NSCLC = system: HOP-92 NSCLC
# SK-MEL-2 melanoma = system: SK-MEL-2 melanoma
# KM12 colon = system: KM12 colon
# HOP-62 NSCLC = system: HOP-62 NSCLC
structure (smiles),measurement,setting,value
CC(=O)Oc1ccccc1C(=O)NC([Se])=NC1CCCCC1,GI50,IGROV1 ovarian,2020 nM
same,TGI,IGROV1 ovarian,3980 nM
same,GI50,RXF 393 renal,1650 nM
same,TGI,RXF 393 renal,3340 nM
same,GI50,COLO 205 colon,17100 nM
same,TGI,COLO 205 colon,31400 nM
same,GI50,OVCAR-5 ovarian,2070 nM
same,TGI,OVCAR-5 ovarian,5150 nM
same,GI50,MOLT-4 leukemia,10800 nM
same,TGI,MOLT-4 leukemia,98800 nM
same,GI50,NCI-H522 lung,15600 nM
same,TGI,NCI-H522 lung,30000 nM
same,GI50,HL-60(TB) leukemia,18200 nM
same,TGI,HL-60(TB) leukemia,> 100000 nM
same,GI50,UACC-257 melanoma,2930 nM
same,TGI,UACC-257 melanoma,10200 nM
same,GI50,MCF7 breast,2240 nM
same,TGI,MCF7 breast,6800 nM
same,GI50,A498 renal,2410 nM
same,TGI,A498 renal,7580 nM
same,GI50,HCC-2998 colon,2280 nM
same,TGI,HCC-2998 colon,5110 nM
same,GI50,ACHN renal,9750 nM
same,TGI,ACHN renal,25800 nM
same,GI50,A549 NSCLC,3300 nM
same,TGI,A549 NSCLC,23000 nM
same,GI50,UACC-62 melanoma,1790 nM
same,TGI,UACC-62 melanoma,3890 nM
same,GI50,K-562 leukemia,26100 nM
same,TGI,K-562 leukemia,> 100000 nM
same,GI50,NCI-H226 lung,2560 nM
same,TGI,NCI-H226 lung,9460 nM
same,GI50,SK-OV-3 ovarian,2840 nM
same,TGI,SK-OV-3 ovarian,7500 nM
same,GI50,HCT-15 colon,3430 nM
same,TGI,HCT-15 colon,11600 nM
same,GI50,MDA-MB-468 breast,7370 nM
same,TGI,MDA-MB-468 breast,20700 nM
same,GI50,OVCAR-4 ovarian,4350 nM
same,TGI,OVCAR-4 ovarian,16900 nM
same,GI50,TK-10 renal,12100 nM
same,TGI,TK-10 renal,24700 nM
same,GI50,HCT-116 colon,3180 nM
same,TGI,HCT-116 colon,12600 nM
same,GI50,PC-3 prostate,2630 nM
same,TGI,PC-3 prostate,8240 nM
same,GI50,786-0 renal,1720 nM
same,TGI,786-0 renal,3280 nM
same,GI50,MDA-MB-231 breast,1960 nM
same,TGI,MDA-MB-231 breast,3770 nM
same,GI50,SW-620 colon,10200 nM
same,TGI,SW-620 colon,23600 nM
same,GI50,HS 578T breast,2670 nM
same,TGI,HS 578T breast,9160 nM
same,GI50,SK-MEL-5 melanoma,1630 nM
same,TGI,SK-MEL-5 melanoma,3070 nM
same,GI50,LOX IMVI melanoma,1960 nM
same,TGI,LOX IMVI melanoma,4260 nM
same,GI50,SN12C renal,1990 nM
same,TGI,SN12C renal,4410 nM
same,GI50,SF-295 CNS,2240 nM
same,TGI,SF-295 CNS,5080 nM
same,GI50,UO-31 renal,1620 nM
same,TGI,UO-31 renal,3030 nM
same,GI50,SF-268 CNS,13700 nM
same,TGI,SF-268 CNS,31200 nM
same,GI50,DU-145 prostate,3220 nM
same,TGI,DU-145 prostate,10200 nM
same,GI50,M14 melanoma,2430 nM
same,TGI,M14 melanoma,5700 nM
same,GI50,SR leukemia,3110 nM
same,TGI,SR leukemia,14400 nM
same,GI50,OVCAR-3 ovarian,12400 nM
same,TGI,OVCAR-3 ovarian,25900 nM
same,GI50,MDA-MB-435,7880 nM
same,TGI,MDA-MB-435,20900 nM
same,GI50,NCI-H460 lung,2620 nM
same,TGI,NCI-H460 lung,7240 nM
same,GI50,CAKI-1 renal,3070 nM
same,TGI,CAKI-1 renal,11500 nM
same,GI50,OVCAR-8 ovarian,1950 nM
same,TGI,OVCAR-8 ovarian,3730 nM
same,GI50,CCRF-CEM leukemia,5250 nM
same,TGI,CCRF-CEM leukemia,29400 nM
same,GI50,HT29 colon,4870 nM
same,TGI,HT29 colon,28700 nM
same,GI50,U251 CNS,2350 nM
same,TGI,U251 CNS,6240 nM
same,GI50,NCI-H23 lung,2240 nM
same,TGI,NCI-H23 lung,5350 nM
same,GI50,BT-549 breast,3300 nM
same,TGI,BT-549 breast,11300 nM
same,GI50,SNB-19 CNS,3280 nM
same,TGI,SNB-19 CNS,11700 nM
same,GI50,T-47D breast,12500 nM
same,TGI,T-47D breast,30200 nM
same,GI50,SK-MEL-28 melanoma,3590 nM
same,TGI,SK-MEL-28 melanoma,13100 nM
same,GI50,MALME-3M melanoma,16700 nM
same,TGI,MALME-3M melanoma,30300 nM
same,GI50,RPMI-8226 leukemia,2630 nM
same,TGI,RPMI-8226 leukemia,7610 nM
same,GI50,EKVX NSCLC,2120 nM
same,TGI,EKVX NSCLC,4930 nM
same,GI50,SNB-75 CNS,1710 nM
same,TGI,SNB-75 CNS,5870 nM
same,GI50,SF-539 CNS,1840 nM
same,TGI,SF-539 CNS,3460 nM
same,GI50,HOP-92 NSCLC,2340 nM
same,TGI,HOP-92 NSCLC,6520 nM
same,GI50,SK-MEL-2 melanoma,2350 nM
same,TGI,SK-MEL-2 melanoma,5290 nM
same,GI50,KM12 colon,3420 nM
same,TGI,KM12 colon,11700 nM
same,GI50,HOP-62 NSCLC,3350 nM
same,TGI,HOP-62 NSCLC,13400 nM
C=Cn1cc(C(=O)O)c(=O)c2cc(F)c(N3CCN(c4nccc(-c5nccs5)n4)CC3)cc21,GI50,IGROV1 ovarian,41.8 nM
same,TGI,IGROV1 ovarian,1510 nM
same,GI50,OVCAR-5 ovarian,234 nM
same,TGI,OVCAR-5 ovarian,3370 nM
same,GI50,MOLT-4 leukemia,40.4 nM
same,TGI,MOLT-4 leukemia,2520 nM
same,GI50,NCI-H522 lung,66.7 nM
same,TGI,NCI-H522 lung,1280 nM
same,GI50,HL-60(TB) leukemia,209 nM
same,TGI,HL-60(TB) leukemia,2950 nM
same,GI50,UACC-257 melanoma,172 nM
same,TGI,UACC-257 melanoma,2900 nM
same,GI50,A498 renal,55.4 nM
same,TGI,A498 renal,2780 nM
same,GI50,HCC-2998 colon,80.4 nM
same,TGI,HCC-2998 colon,2030 nM
same,GI50,ACHN renal,16.6 nM
same,TGI,ACHN renal,1170 nM
same,GI50,UACC-62 melanoma,24.6 nM
same,TGI,UACC-62 melanoma,175 nM
same,GI50,K-562 leukemia,61.4 nM
same,TGI,K-562 leukemia,> 100000 nM
same,GI50,NCI-H226 lung,60.7 nM
same,TGI,NCI-H226 lung,517 nM
same,GI50,SK-OV-3 ovarian,208 nM
same,TGI,SK-OV-3 ovarian,3790 nM
same,GI50,HCT-15 colon,40.5 nM
same,TGI,HCT-15 colon,1600 nM
same,GI50,MDA-MB-468 breast,109 nM
same,TGI,MDA-MB-468 breast,1230 nM
same,GI50,HCT-116 colon,30.4 nM
same,TGI,HCT-116 colon,1420 nM
same,GI50,786-0 renal,225 nM
same,TGI,786-0 renal,2920 nM
same,GI50,MDA-MB-231 breast,345 nM
same,TGI,MDA-MB-231 breast,3440 nM
same,GI50,SW-620 colon,23.4 nM
same,TGI,SW-620 colon,2690 nM
same,GI50,HS 578T breast,86.5 nM
same,TGI,HS 578T breast,1490 nM
same,GI50,SK-MEL-5 melanoma,36.4 nM
same,TGI,SK-MEL-5 melanoma,576 nM
same,GI50,LOX IMVI melanoma,35 nM
same,TGI,LOX IMVI melanoma,195 nM
same,GI50,SN12C renal,119 nM
same,TGI,SN12C renal,2530 nM
same,GI50,SF-295 CNS,29.1 nM
same,TGI,SF-295 CNS,1550 nM
same,GI50,UO-31 renal,25.9 nM
same,TGI,UO-31 renal,782 nM
same,GI50,DU-145 prostate,145 nM
same,TGI,DU-145 prostate,4080 nM
same,GI50,M14 melanoma,238 nM
same,TGI,M14 melanoma,3380 nM
same,TGI,SR leukemia,1530 nM
same,GI50,OVCAR-3 ovarian,88.6 nM
same,TGI,OVCAR-3 ovarian,2770 nM
same,GI50,NCI-H460 lung,21.5 nM
same,TGI,NCI-H460 lung,1390 nM
same,GI50,CAKI-1 renal,23.7 nM
same,TGI,CAKI-1 renal,839 nM
same,GI50,CCRF-CEM leukemia,61.6 nM
same,TGI,CCRF-CEM leukemia,> 100000 nM
same,GI50,HT29 colon,46.4 nM
same,TGI,HT29 colon,2490 nM
same,GI50,U251 CNS,85.8 nM
same,TGI,U251 CNS,> 100000 nM
same,GI50,NCI-H23 lung,55.8 nM
same,TGI,NCI-H23 lung,1270 nM
same,GI50,BT-549 breast,194 nM
same,TGI,BT-549 breast,1560 nM
same,GI50,T-47D breast,118 nM
same,TGI,T-47D breast,> 100000 nM
same,GI50,SK-MEL-28 melanoma,96.4 nM
same,TGI,SK-MEL-28 melanoma,1260 nM
same,GI50,MALME-3M melanoma,50.6 nM
same,TGI,MALME-3M melanoma,1330 nM
same,GI50,RPMI-8226 leukemia,62 nM
same,TGI,RPMI-8226 leukemia,1450 nM
same,GI50,EKVX NSCLC,283 nM
same,TGI,EKVX NSCLC,4300 nM
same,GI50,SNB-75 CNS,115 nM
same,TGI,SNB-75 CNS,1630 nM
same,GI50,SF-539 CNS,72.8 nM
same,TGI,SF-539 CNS,2310 nM
same,GI50,HOP-92 NSCLC,210 nM
same,TGI,HOP-92 NSCLC,1660 nM
same,GI50,SK-MEL-2 melanoma,77.1 nM
same,TGI,SK-MEL-2 melanoma,1260 nM
same,GI50,KM12 colon,78.5 nM
same,TGI,KM12 colon,2670 nM
same,GI50,HOP-62 NSCLC,139 nM
same,TGI,HOP-62 NSCLC,3690 nM
